# Tests used:
# [1] = Volatilization Using Stainless Steel Foil; HPLC analysis of the condensation aerosol; type: physicochemical; conditions: for Purity of the aerosol (purity analysis): single drug on stainless steel foil substrate (5 cm^2), film thickness about 0.4-1.2 μm, capacitor charged to 15 V; for Purity of each drug in the aerosol from a mixture of albuterol and flunisolide: about 0.20 mg flunisolide and about 0.16 mg albuterol co-coated on stainless steel foil (5 cm^2), film about 0.64 μm, capacitor 15.5 V
# Source text: Strips of clean 304 stainless steel foil (0.0125 cm thick, Thin Metal Sales) having dimensions 1.3 cm by 7.0 cm were dip-coated approximately 4.5 to 5 cm on the strip with an asthma drug solution prepared as described above. The foil was then partially dipped three times into solvent to rinse drug off of the last 2-3 cm of the dipped end of the foil. Alternatively, the drug-coating from this bottom 2-3 cm area was carefully taken off with a razor blade. The final coated area was between 2.0-2.5 cm by 1.3 cm on both sides of the foil, for a total area of between 5.2-6.5 cm^2. Foils were prepared as stated above and then some were extracted with methanol or acetonitrile as standards. The amount of drug was determined from quantitative HPLC analysis. Using the known drug-coated surface area, the thickness was then calculated.
# After drying, the drug-coated foil was placed into a volatilization chamber constructed of a Delrin block (the airway) and brass bars, which served as electrodes. The dimensions of the airway were 1.3 cm high by 2.6 cm wide by 8.9 cm long. The drug-coated foil was placed into the volatilization chamber such that the drug-coated section was between the two sets of electrodes. After securing the top of the volatilization chamber, the electrodes were connected to a 1 Farad capacitor (Phoenix Gold). The back of the volatilization chamber was connected to a two micron Teflon® filter (Savillex) and filter housing, which were in turn connected to the house vacuum. Sufficient airflow was initiated (typically 30 L/min=1.5 m/sec), at which point the capacitor was charged with a power supply, typically to between 14-17 Volts.
# The circuit was closed with a switch, causing the drug-coated foil to resistively heat to temperatures of about 280-430° C. (as measured with an infrared camera (FLIR Thermacam SC3000)), in about 200 milliseconds. After the drug had vaporized, airflow was stopped and the Teflon® filter was extracted with acetonitrile. Drug extracted from the filter was analyzed generally by HPLC UV absorbance generally at 225 nm using a gradient method aimed at detection of impurities to determine percent purity. Also, the extracted drug was quantified to determine a percent yield, based on the mass of drug initially coated onto the substrate. A percent recovery was determined by quantifying any drug remaining on the substrate and chamber walls, adding this to the quantity of drug recovered in the filter and comparing it to the mass of drug initially coated onto the substrate.
# [2] = Volatilization from stainless steel cylinder (flashbar); HPLC analysis of the condensation aerosol; type: physicochemical; conditions: drug dip coated on stainless steel flashbar, capacitors 20.5 volts, heated to about 400° C. within about 200 milliseconds, 15 L/min room air
# Source text: A hollow stainless steel cylinder with thin walls, typically 0.12 mm wall thickness, a diameter of 13 mm, and a length of 34 mm was cleaned in dichloromethane, methanol, and acetone, then dried, and fired at least once to remove any residual volatile material and to thermally passivate the stainless steel surface. The substrate was then dip-coated with a drug coating solution (prepared as described above). The dip-coating was done using a computerized dipcoating machine to produce a thin layer of drug on the outside of the substrate surface. The substrate was lowered into the drug solution and then removed from the solvent at a rate of typically 5-25 cm/sec. (To coat larger amounts of material on the substrate, the substrate was removed more rapidly from the solvent or the solution used was more concentrated.) The substrate was then allowed to dry for 30 minutes inside a fume hood. If either dimethylformamide (DMF) or a water mixture was used as a dip-coating solvent, the substrate was vacuum dried inside a desiccator for a minimum of one hour. The drug-coated portion of the cylinder generally has a surface area of 8 cm^2. By assuming a unit density for the drug, the initial drug coating thickness was calculated. The amount of drug coated onto the substrates was determined in the same manner as that described above: the substrates were coated, then extracted with methanol or acetonitrile and analyzed with quantitative HPLC methods, to determine the mass of drug coated onto the substrate.
# The drug-coated substrate was placed in a surrounding glass tube connected at the exit end via Tygon® tubing to a filter holder fitted with a Teflon® filter (Savillex). The junction of the tubing and the filter was sealed with paraffin film. The substrate was placed in a fitting for connection to two 1 Farad capacitors wired in parallel and controlled by a high current relay. The capacitors were charged by a separate power source to about 18-22 Volts and most of the power was channeled to the substrate by closing a switch and allowing the capacitors to discharge into the substrate. The substrate was heated to a temperature of between about 300-500° C. in about 100 milliseconds. The heating process was done under an airflow of 15 L/min, which swept the vaporized drug aerosol into a 2 micron Teflon® filter.
# After volatilization, the aerosol captured on the filter was recovered for quantification and analysis. The quantity of material recovered in the filter was used to determine a percent yield, based on the mass of drug coated onto the substrate. The material recovered in the filter was also analyzed generally by HPLC UV absorbance at typically 225 nm using a gradient method aimed at detection of impurities, to determine purity of the thermal vapor. Any material deposited on the glass sleeve or remaining on the substrate was also recovered and quantified to determine a percent total recovery ((mass of drug in filter+mass of drug remaining on substrate and glass sleeve)/mass of drug coated onto substrate). For compounds without UV absorption GCMS or LC/MS was used to determine purity and to quantify the recovery. Some samples were further analyzed by LC/MS to confirm the molecular weight of the drug and any degradants.
# About 1.2 mg of albuterol was dip coated onto the stainless steel surface of a flashbar apparatus. (The flashbar is a cylinder 3.5 cm long and 1.3 cm in diameter consisting of a hollow tube of 0.005″ thick stainless steel). Brass electrodes were connected to either end of the steel cylinder. The coated flashbar was secured in an electrical mount, which connected to two 1.0 Farad capacitors in parallel. An airway was provided by a 2 cm diameter glass sleeve placed around the flashbar. 15 L/min of room air were pulled by a house vacuum through the vaporization chamber and a filter housing, which contained a two-micron Teflon filter. […]
compound,measurement,setting,value
CCCn1c(=O)c2[nH]c(C3CCCC3)nc2n(CCC)c1=O [CPX],Purity of the aerosol (purity analysis),[1],99.8%
CC(C)Cn1c(=O)n(C)c(=O)c2[nH]cnc21 [IBMX],Purity of the aerosol (purity analysis),[1],99.9%
CC(C)(C)NCC(O)c1ccc(O)c(CO)c1 (centres unmarked) [albuterol],Purity of the aerosol (purity analysis by HPLC),[2],94.4%
same,Purity of each drug in the aerosol from a mixture of albuterol and flunisolide,[1],97.2%
CCCC1O[C@@H]2C[C@H]3[C@@H]4CCC5=CC(=O)C=C[C@]5(C)[C@H]4[C@@H](O)C[C@]3(C)[C@]2(C(=O)CO)O1 (some centres unmarked) [budesonide],Purity of the aerosol (purity analysis by HPLC),[2],70.5%
CC(C)C(=O)OCC(=O)[C@@]12O[C@H](C3CCCCC3)O[C@@H]1C[C@H]1[C@@H]3CCC4=CC(=O)C=C[C@]4(C)[C@H]3[C@@H](O)C[C@@]12C [ciclesonide],Purity of the aerosol (purity analysis),[1],99.03%
CCC(=O)O[C@]1(C(=O)SCF)[C@H](C)C[C@H]2[C@@H]3C[C@H](F)C4=CC(=O)C=C[C@]4(C)[C@@]3(F)[C@@H](O)C[C@@]21C [fluticasone propionate],Purity of the aerosol (purity analysis),[1],91.6%
CC(C)NCC(O)c1cc(O)cc(O)c1 (centres unmarked) [metaproterenol],Purity of the aerosol (purity analysis by HPLC),[2],99.1%
CC(C)(C)NCC(O)c1cc(O)cc(O)c1 (centres unmarked) [terbutaline],Purity of the aerosol (purity analysis by HPLC),[2],99.3%
Cn1c(=O)c2[nH]cnc2n(C)c1=O [theophylline],Purity of the aerosol (purity analysis by HPLC),[2],about 99.5%
CC1(C)O[C@@H]2C[C@H]3[C@@H]4CCC5=CC(=O)C=C[C@]5(C)[C@@]4(F)[C@@H](O)C[C@]3(C)[C@]2(C(=O)CO)O1 [triamcinolone acetonide],Purity of the aerosol (purity analysis by HPLC),[2],about 92.0%
flunisolide,Purity of the aerosol (purity analysis by HPLC),[2],97.6%
same,Purity of each drug in the aerosol from a mixture of albuterol and flunisolide,[1],94.5%
same,Purity of the aerosol (purity analysis),[1],94.9%

# Source: US7550133B2, “Respiratory drug condensation aerosols and methods of making and using them” (Alexza Pharmaceuticals, Inc., priority 2002, dated 2009)
